According to US20020010182A1, “Piperazine derivatives as tachykinin antagonists” (FUJISAWA PHARMACEUTICAL CO., LTD., priority 1995, published 2002):
Where a name gives a salt, the structure may show the parent alone.

What was measured:
h-NK1 receptors = target: T1, h-NK1 receptors (Homo sapiens, UniProt P25103); assay: Evaluation of NK1 antagonist transport efficiency to the central nervous system using a h-NK1 receptor binding assay; conditions: 5 min, brain extract of male SD rats 5 min after i.v. injection of test compound, CHO cell membranes expressing h-NK1, read-out: inhibition rate of 125I-BH-Substance P binding to h-NK1 receptors
T1 construct: expressed in transfected cells; host or cells: CHO cells (permanent expression), crude cell membranes
T1 sequence (P25103 whole entry): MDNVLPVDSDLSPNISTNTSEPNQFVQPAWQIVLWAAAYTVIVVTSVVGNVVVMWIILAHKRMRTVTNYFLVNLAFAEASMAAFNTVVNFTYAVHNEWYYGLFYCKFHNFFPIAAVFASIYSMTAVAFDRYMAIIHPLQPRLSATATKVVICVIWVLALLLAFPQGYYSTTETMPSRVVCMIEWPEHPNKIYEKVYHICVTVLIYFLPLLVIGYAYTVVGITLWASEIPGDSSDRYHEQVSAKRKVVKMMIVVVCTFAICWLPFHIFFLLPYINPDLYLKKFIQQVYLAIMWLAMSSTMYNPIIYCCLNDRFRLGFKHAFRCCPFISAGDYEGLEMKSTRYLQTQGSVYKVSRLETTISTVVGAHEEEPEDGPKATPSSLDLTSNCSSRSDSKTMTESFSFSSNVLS
Procedure: A. Evaluation of NK1 Antagonist Transport Efficiency to the Cental Nervous System Using a h-NK1 Receptor Binding Assay
(1) Administration of Test Compound and Extraction of the Compound From Brain
Male SD rats were given an i.v. injection of a solution containing a test compound (1 mg/kg). 5 Min later the animals were anesthetized by ether, bled and perfused through the aorta ascendens with 20 ml of saline. The brain was rapidly removed, weighed and homogenized in 4 vol. ice-cold distilled water by using Polytoron (KINEMATICA). To extract the test compound, 500 μl of the homogenate, 100 μl of methanol, 500 μl of 0.1 N NaOH and 4 ml of ethyl acetate were mixed by shaking for 10 min at room temperature. The organic phase (2.5 ml) was recovered by centrifugation at 3,000 rpm for 10 min, dried and dissolved in dimethyl sulfoxide.
(2) h-NK1 Receptor Binding Assay
(a) Crude CHO Cell Membrane Preparation
CHO cells permanently expressing h-NK1 receptors were harvested and homogenized with a Dounce homogenizer at 4° C. in a buffer (0.25 M sucrose, 25 mM Tris-HCl (pH 7.4), 10 mM MgCl2, 1 mM EDTA, 5 μg/ml p-APMSF). The homogenate was centrifuged (500×g, 10 min), and the pellet was resuspended in the same buffer, homogenized, and centrifuged. The two supernatants were combined and centrifuged (100,000×g, 1 hour). The crude cell membranes thus isolated were resuspended in a buffer (25 MM Tris-HCl (pH 7.4), 10 mM MgCl2, 1 mM EDTA, 5 μg/ml p-APMSF) and stored at −80° C. until use.
(b) ^125I-BH-Substance P Binding to the Prepared Membrane
Cell membranes (6 μg/ml) were incubated with ^125I-BH-Substance P (0.1 nM) with or without the extracted compounds in 0.25 ml of a medium (50 mM Tris-HCl (pH 7.4), 5 mM MnCl2, 20 μg/ml chymrostatin, 40 μg/ml bacitracin, 4 μg/ml leupeptin, 5 μg/ml p-APMSF, 200 μg/ml BSA) at 22° C. for 90 min. At the end of the incubation period, the contents were quickly filtered through a Blue Mat 11740 filter (pretreated with 0.1% polyethylenimine for 3 hours prior to use) by using SKATRON Cell Harvester. The filter was then washed with a washing buffer (50 mM Tris-HCl (pH 7.4), 5 mM MnCl2) . The radioactivity was counted by using an auto gamma counter (Packard RIASTAR 5420A). All data presented are specific binding defined as that displaceable by 3 μM unlabeled Substance P.

Row | SMILES | inhibition at 1 mg/kg (h-NK1 receptors) | melting point
1 | CC1(C)COCCN1CC=CCN1CCN(C(=O)c2cc(C(F)(F)F)cc(C(F)(F)F)c2)[C@H](Cc2c[nH]c3ccccc23)C1.Cl.Cl [Example 86, (2R) -1-[3,5-Bis(trifluoromethyl)benzoyl]-2-(1H-indol-3-ylmethyl)-4-[4-(3,3-dimethylmorpholino)-2-butenyl]piperazine dihydrochloride] | > 80% | 210 °C (dec.)
2 | Cc1ccc(C[C@@H]2CN(CC#CCN3CCOCC3)CCN2C(=O)c2cc(C(F)(F)F)cc(C(F)(F)F)c2)cc1C.Cl.Cl [37-(2), (2R)-4-(4-Morpholino-2-butynyl)-1-[3,5-bis (trifluoromethyl)benzoyl]-2-(3,4-dimethylbenzyl) piperazine dihydrochloride] | > 80% | 155 to 162 °C
3 | Cl.Cl.O=C(c1cc(C(F)(F)F)cc(C(F)(F)F)c1)N1CCN(C/C=C/CN2CCOCC2)C[C@H]1Cc1ccc2ccccc2c1 [62-(1), (2R)-1-[3,5-Bis(trifluoromethyl)benzoyl]-2-(2-naphthylmethyl)-4-[(E)-4-morpholino-2-butenyl]piperazine dihydrochloride] | > 80% | > 230 °C
4 | CC(=O)c1ccc(CN2CCN(C(=O)c3cc(C(F)(F)F)cc(C(F)(F)F)c3)[C@H](Cc3c[nH]c4ccccc34)C2)cc1.Cl [Example 7, (2R)-4-(4-acetylbenzyl)-1-[3,5-bis(trifluoromethyl)benzoyl]-2-(1H-indol-3-ylmethyl) piperazine hydrochloride] | > 80% | 172 °C (dec.)
5 | Cc1ccc(C[C@@H]2CN(CC#CCN3CCOCC3C)CCN2C(=O)c2cc(C(F)(F)F)cc(C(F)(F)F)c2)cc1C.Cl.Cl (stereo partly drawn) [Example 58, (2R)-1-[3,5-bis(trifluoromethyl)benzoyl]-2-(3,4-dimethylbenzyl)-4-[4-(3-methylmorpholino)-2-butynyl]piperazine dihydrochloride] | > 80% | 150 to 160 °C
6 | Cc1ccc(C[C@@H]2CN(CCCN3CCOCC3)CCN2C(=O)c2cc(C(F)(F)F)cc(C(F)(F)F)c2)cc1C.Cl.Cl [53-(1), (2R)-1-[3,5-Bis(trifluoromethyl)benzoyl]-2-(3,4-dimethylbenzyl)-4-(3-morpholinopropyl) piperazine dihydrochloride] | > 80% | 220 to 230 °C
7 | Cc1ccc(C[C@@H]2CN(C/C=C\CN3CCOCC3)CCN2C(=O)c2cc(C(F)(F)F)cc(C(F)(F)F)c2)cc1C.Cl.Cl [Example 72, (2R)-1-[3,5-Bis(trifluoromethyl)benzoyl]-2-(3,4-dimethylbenzyl)-4-[(Z)-4-morpholino-2-butenyl]piperazine dihydrochloride] | > 80% | 243 to 246 °C
8 | Cc1ccc(C[C@@H]2CN(CCCCN3CCOCC3)CCN2C(=O)c2cc(C(F)(F)F)cc(C(F)(F)F)c2)cc1C.Cl.Cl [Example 54, (2R)-1-[3,5-bis(trifluoromethyl)benzoyl]-2-(3,4-dimethylbenzyl)-4-(4-morpholinobutyl) piperazine dihydrochloride] | > 80% | 279 °C
9 | Cc1ccc(C[C@@H]2CN(Cc3cnn(C)c3)CCN2C(=O)c2cc(C(F)(F)F)cc(C(F)(F)F)c2)cc1C.Cl [Example 51, (2R)-1-[3,5-bis(trifluoromethyl)benzoyl]-2-(3,4-dimethylbenzyl)-4-[(1-methyl-1H-pyrazol-4-yl)methyl]piperazine hydrochloride] | > 80% | 243 to 244 °C
10 | COCC1CN(CC#CCN2CCN(C(=O)c3cc(C(F)(F)F)cc(C(F)(F)F)c3)[C@H](Cc3ccc(C)c(C)c3)C2)CCO1.Cl.Cl (stereo partly drawn) [59-(1), (2R)-1-[3,5-Bis(trifluoromethyl)benzoyl]-2-(3,4-dimethylbenzyl)-4-[4-(2-methoxymethylmorpholino)-2-butynyl]piperazine dihydrochloride] | > 80% | 150 to 165 °C
11 | Cl.Cl.O=C(c1cc(C(F)(F)F)cc(C(F)(F)F)c1)N1CCN(CC#CCN2CCSCC2)C[C@H]1Cc1c[nH]c2ccccc12 [Example 37-(4), (2R)-4-(4-Thiomorpholino-2-butynyl)-1-[3,5-bis (trifluoromethyl)benzoyl]-2-(1H-indol-3-ylmethyl) piperazine dihydrochloride] | > 80% | 166 to 170 °C
12 | Cl.Cl.O=C(c1cc(C(F)(F)F)cc(C(F)(F)F)c1)N1CCN(C/C=C/CN2CCOCC2)C[C@H]1Cc1c[nH]c2ccccc12 [Example 76, (2R)-1-[3,5-Bis(trifluoromethyl)benzoyl]-2-(1H-indol-3-ylmethyl)-4-[(E)-4-morpholino-2-butenyl]piperazine dihydrochloride] | > 80% | 123 to 128 °C
13 | Cl.Cl.O=C(c1cc(C(F)(F)F)cc(C(F)(F)F)c1)N1CCN(CC#CCN2CCSCC2)C[C@H]1Cc1ccc(F)cc1 [84-(1), (2R)-1-[3,5-Bis(trifluoromethyl)benzoyl]-2-(4-fluorobenzyl)-4-(4-thiomorpholino-2-butynyl) piperazine dihydrochloride] | > 80% | 180 °C (dec.)
14 | Cc1ccc(C[C@@H]2CN(C/C=C/CN3CCOCC3)CCN2C(=O)c2cc(C(F)(F)F)cc(C(F)(F)F)c2)cc1C.Cl.Cl [Example 75, (2R)-1-[3,5-bis(trifluoromethyl)benzoyl]-2-(3,4-dimethylbenzyl)-4-[(E)-4-morpholino-2-butenyl]piperazine dihydrochloride] | > 80% | 236 to 242 °C
15 | Cc1ccc(C[C@@H]2CN(CCCCCN3CCOCC3)CCN2C(=O)c2cc(C(F)(F)F)cc(C(F)(F)F)c2)cc1C.Cl.Cl [Example 74, (2R)-1-[3,5-Bis(trifluoromethyl)benzoyl]-2-(3,4-dimethylbenzyl)-4-(5-morpholinopentyl) piperazine dihydrochloride] | > 80% | 235 to 238 °C
16 | Cl.Cn1cc(CN2CCN(C(=O)c3cc(C(F)(F)F)cc(C(F)(F)F)c3)[C@H](Cc3c[nH]c4ccccc34)C2)cn1 [Example 77, (2R)-1-[3,5-bis (trifluoromethyl)benzoyl]-2-(1H-indol-3-ylmethyl)-4-[(1-methyl-1H-pyrazol-4-yl)methyl]piperazine hydrochloride] | > 80% | 122 to 136 °C
17 | O=C(c1cc(C(F)(F)F)cc(C(F)(F)F)c1)N1CCN(CCCCCN2CCOCC2)C[C@H]1Cc1c[nH]c2ccccc12 [Example 55, (2R)-1-[3,5-Bis(trifluoromethyl)benzoyl]-2-(1H-indol-3-ylmethyl)-4-(5-morpholinopentyl) piperazine dihydrochloride] | > 80% | –
18 | O=C(c1cc(C(F)(F)F)cc(C(F)(F)F)c1)N1CCN(C/C=C\CN2CCOCC2)C[C@H]1Cc1c[nH]c2ccccc12 [Example 71, (2R) -1-[3,5-bis(trifluoromethyl)benzoyl]-2-(1H-indol-3-ylmethyl)-4-[(Z)-4-morpholino-2-butenyl]piperazine dihydrochloride] | > 80% | –
19 | O=C(c1cc(C(F)(F)F)cc(C(F)(F)F)c1)N1CCN(CCNCc2cccnc2)C[C@H]1Cc1ccc2ccccc2c1 [82-(7), (2R)-1-[3,5-Bis(trifluoromethyl)benzoyl]-2-(2-naphthylmethyl)-4-[N-(3-pyridylmethyl)-2-aminoethyl]piperazine trihydrochloride] | > 80% | –
20 | O=C(c1cc(C(F)(F)F)cc(C(F)(F)F)c1)N1CCN(CCCNN2CCOCC2)C[C@H]1Cc1ccc2ccccc2c1 [82-(9), (2R)-1-[3,5-Bis(trifluoromethyl)benzoyl]-2-(2-naphthylmethyl)-4-(N-morpholino-3-aminopropyl) piperazine dihydrochloride] | > 80% | –
21 | O=C(c1cc(C(F)(F)F)cc(C(F)(F)F)c1)N1CCN(CCO)C[C@H]1Cc1ccc(Cl)c(Cl)c1 [Example 47, (2R)-2-(3,4-dichlorobenzyl)-1-[3,5-bis(trifluoromethyl)benzoyl]-4-(2-hydroxyethyl) piperazine hydrochloride] | > 80% | –
